Measurements from paper PMC7613515, “Reading and erasing of the phosphonium analogue of trimethyllysine by epigenetic proteins” (Communications Chemistry, 2022).

Molecular target: T1, TAF3PHD (R857–K924) (Mus musculus, UniProt Q5HZG4)
T1 construct: TAF3PHD (R857–K924); made in house; host or cells: E. coli
T1 sequence (Q5HZG4 857-924 limits assumed): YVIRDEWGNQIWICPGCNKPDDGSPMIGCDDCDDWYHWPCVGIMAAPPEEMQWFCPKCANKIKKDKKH
Test: ITC, association of histone H3 peptides with TAF3PHD
Type: binding, human
Conditions: 25 °C, H3 1-10 peptide, Tris (50 mM), pH 7.5, from 3 to 5 experiments, ± SD
Excerpt: We investigated the thermodynamics of association of the H3KP4me3 peptide with five representative human reader domains containing either a PHD zinc finger or TTD, i.e. KDM5APHD3 (JARID1A-PHD3, residues M1489–V1641)[10], TAF3PHD (R857–K924)[22], BPTFPHD (L2583–N2751)[23], SGF29TTD (R115–K293)[24] and KDM4ATTD (JMJD2A, Q897-P1011)[25], selected on the basis of their preference for binding Ν^ε-trimethyllysine over other (non)methylation marks (Kme0 < Kme1 < Kme2 < Kme3), and their domain and aromatic cage diversity. The recombinant readers were produced in E. coli following reported procedures. Isothermal titration calorimetric (ITC) analyses were used to determine the dissociation constant (Kd), the Gibbs free energy of binding (ΔG°), the enthalpy of binding (ΔH°), and the entropy of binding (ΔS°). […] (Table 1, Fig. 2, Supplementary Fig. 1).
The following purified reader domains: TAF3PHD (R857-K924), KDM5APHD3 (JARID1A, M1489-V1641), BPTFPHD (L2583-N2751), KDM4ATTD (JMJD2A, Q897-P1011) and SGF29TTD (R115-K293) were prepared as reported[10],[22]–[26]. The histone lysine demethylase were produced and purified to high purity via reported procedures KDM3A (JMJD1A, T515-S1317)[41], KDM4AJmjC[39] (JMJD2A, M1-L359), KDM4EJmjC (JMJD2E, M1–Q337)[34] and KDM7B[40] (PHF8, M37-N483 [NP_001171]). KDM5DJmjC was produced using an N-terminal hexa-His tagged KDM4D (KDM4DM1-L358) DNA construct, transformed into BL21(DE3) competent cells for recombinant protein production. Colonies were used to inoculate of LB media (50 mL) containing kanamycin (50 µg·mL^−1) and chloramphenicol (34 µg·mL^−1), which was placed in a 37 °C shaker overnight. The starter culture (10 mL) was used to inoculate TB media (6 × 1 L) containing kanamycin (50 µg·mL^−1) in 2 L baffled shaker flasks. After reaching an of OD600 of ~0.8, the temperature was reduced to 18 °C; at OD600 ~0.9 the cells were induced by the IPTG (0.5 mM) addition. After shaking overnight, the culture was centrifuged (5000 rpm, 10 mins), the media was decanted, and the cell pellet was suspended in Lysis Buffer [HEPES (50 mM), NaCl (500 mM), imidazole (20 mM), glycerol (5%) and TCEP (0.5 mM) in water (pH 7.4)]. The suspension was lysed by passaging through a high-pressure cell breaker (Avestin – EmulsiFlex-C5) for three rounds. The lysate was cleared by centrifugation (60 minutes, 36,000 × g, 4 °C), then loaded onto a Ni NTA gravity column. […]
ITC studies followed a reported procedure. […] Histone peptide titrations were performed with the same reader batches. Solutions of the reader in buffer (25–40 µM) and of the histone H3 peptide (350–600 µM) in buffer were prepared. […] Heats of dilution for histone peptides determined in control experiments were subtracted from the titration binding data. […]

`C[C@H](N)C(=O)N[C@@H](CCCNC(=N)N)C(=O)N[C@H](C(=O)N[C@@H](CCCC[P+](C)(C)C)C(=O)N[C@@H](CCC(N)=O)C(=O)N[C@H](C(=O)N[C@@H](C)C(=O)N[C@@H](CCCNC(=N)N)C(=O)N[C@@H](CCCCN)C(=O)N[C@@H](CO)C(N)=O)[C@@H](C)O)[C@@H](C)O` [H3KP4me3] was tested, and the “-TΔS°” value was 1.1 ± 0.1 kcal/mol, the “ΔG°” value was -10.0 ± 0.1 kcal/mol and the “ΔH°” value was -11.1 ± 0.1 kcal/mol.
